Data on 10 compounds can be found in ChEMBL document CHEMBL4011590, “Structure-activity relationship studies on 3,5-dinitrophenyl tetrazoles as antitubercular agents” (Eur J Med Chem, 2017).

Format in all cases: functional
Experiment [1] relates to Mycobacterium kansasii. Put plainly: Antimycobacterial activity against Mycobacterium kansasii isolate 6509/96 after 14 days by micromethod. The following applies: isolate 6509/96, 336 h.
The test system of experiment [2] is Mycobacterium avium. The experiment can be described thus: Antimycobacterial activity against Mycobacterium avium CNCTC My 330/80 after 21 days by micromethod. The following applies: CNCTC My 330/80, 504 h.
Experiment [3] relates to Mycobacterium kansasii. Put plainly: Antimycobacterial activity against Mycobacterium kansasii isolate 6509/96 after 21 days by micromethod. The following applies: isolate 6509/96, 504 h.
Experiment [4] concerns Mycobacterium kansasii. Put plainly: Antimycobacterial activity against Mycobacterium kansasii isolate 6509/96 after 7 days by micromethod. As to conditions: isolate 6509/96, 168 h.
The subject of experiment [5] is Mycobacterium tuberculosis. Put plainly: Antimycobacterial activity against Mycobacterium tuberculosis H37Rv CNCTC My 331/88 after 21 days by micromethod. As to conditions: H37Rv CNCTC My 331/88, 504 h.
Experiment [6] deals with Mycobacterium kansasii. The experiment can be described thus: Antimycobacterial activity against Mycobacterium kansasii CNCTC My 235/80 after 14 days by micromethod. The following applies: CNCTC My 235/80, 336 h.
In experiment [7] the test system is Mycobacterium kansasii. The experiment can be described thus: Antimycobacterial activity against Mycobacterium kansasii CNCTC My 235/80 after 21 days by micromethod. As to conditions: CNCTC My 235/80, 504 h.
Experiment [8] concerns Mycobacterium avium. The experiment can be described thus: Antimycobacterial activity against Mycobacterium avium CNCTC My 330/80 after 14 days by micromethod. The following applies: CNCTC My 330/80, 336 h.
Experiment [9] relates to Mycobacterium kansasii. The experiment can be described thus: Antimycobacterial activity against Mycobacterium kansasii CNCTC My 235/80 after 7 days by micromethod. The following applies: CNCTC My 235/80, 168 h.
For experiment [10], the system named is Mycobacterium tuberculosis. Put plainly: Antimycobacterial activity against Mycobacterium tuberculosis H37Rv CNCTC My 331/88 after 14 days by micromethod. The following applies: H37Rv CNCTC My 331/88, 336 h.

≈ marks a conversion by molar mass, not a printed value.

For `O=[N+]([O-])c1cc(-c2nnn(CCCSc3nnnn3-c3ccc(Br)cc3)n2)cc([N+](=O)[O-])c1`, the MIC99 in the experiment with Mycobacterium kansasii [1] came to 1 µM (≈ 0.533 µg/mL); in the experiment with Mycobacterium avium [2], 2 µM (≈ 1.07 µg/mL); with Mycobacterium kansasii [3], 1 µM (≈ 0.533 µg/mL); against Mycobacterium kansasii [4], 0.5 µM (≈ 0.267 µg/mL); in [5] it was 0.5 µM (≈ 0.267 µg/mL); in the experiment on Mycobacterium kansasii [6] it was 1 µM (≈ 0.533 µg/mL). Further, the MIC99 against Mycobacterium kansasii [7] stood at 2 µM (≈ 1.07 µg/mL); against Mycobacterium avium [8], 1 µM (≈ 0.533 µg/mL); in the experiment on Mycobacterium kansasii [9], 0.5 µM (≈ 0.267 µg/mL); in experiment [10], 0.5 µM (≈ 0.267 µg/mL).

On to `COc1ccccc1-n1nnnc1Sc1cc([N+](=O)[O-])cc([N+](=O)[O-])c1`, for which the MIC99 came out at 32 µM (≈ 12 µg/mL) with Mycobacterium kansasii [1]; 32 µM (≈ 12 µg/mL) in the experiment on Mycobacterium avium [2]; 32 µM (≈ 12 µg/mL) against Mycobacterium kansasii [3]; 8 µM (≈ 2.99 µg/mL) in the experiment with Mycobacterium kansasii [4]; 8 µM (≈ 2.99 µg/mL) in experiment [5]; 32 µM (≈ 12 µg/mL) with Mycobacterium kansasii [6]. The MIC99 against Mycobacterium kansasii [7] worked out at 62.5 µM (≈ 23.4 µg/mL); in the experiment on Mycobacterium avium [8] it was 16 µM (≈ 5.99 µg/mL); against Mycobacterium kansasii [9], 16 µM (≈ 5.99 µg/mL); in [10], 4 µM (≈ 1.5 µg/mL).

Consider `O=[N+]([O-])c1cc(-c2nnnn2Cc2ccc(Cl)cc2)cc([N+](=O)[O-])c1`, for which the MIC99 in the experiment with Mycobacterium kansasii [1] amounted to 8 µM (≈ 2.89 µg/mL); in the experiment with Mycobacterium avium [2] it was 16 µM (≈ 5.77 µg/mL); with Mycobacterium kansasii [3], 8 µM (≈ 2.89 µg/mL); against Mycobacterium kansasii [4], 4 µM (≈ 1.44 µg/mL); in experiment [5], 4 µM (≈ 1.44 µg/mL); in the experiment on Mycobacterium kansasii [6], 16 µM (≈ 5.77 µg/mL). Besides, the MIC99 against Mycobacterium kansasii [7] is 16 µM (≈ 5.77 µg/mL); in the experiment on Mycobacterium avium [8], 16 µM (≈ 5.77 µg/mL); against Mycobacterium kansasii [9] it was 8 µM (≈ 2.89 µg/mL); in experiment [10], 4 µM (≈ 1.44 µg/mL).

Take `O=[N+]([O-])c1cc(-c2nnn(CCSc3nnnn3-c3ccc(Cl)c(Cl)c3)n2)cc([N+](=O)[O-])c1`: the MIC99 against Mycobacterium kansasii [1] turned out to be 1 µM (≈ 0.509 µg/mL); with Mycobacterium avium [2], 4 µM (≈ 2.04 µg/mL); with Mycobacterium kansasii [3], 1 µM (≈ 0.509 µg/mL); in the experiment with Mycobacterium kansasii [4], 0.5 µM (≈ 0.255 µg/mL); in [5], 0.25 µM (≈ 0.127 µg/mL); against Mycobacterium kansasii [6] it was 0.5 µM (≈ 0.255 µg/mL). Also, the MIC99 in the experiment with Mycobacterium kansasii [7] is 1 µM (≈ 0.509 µg/mL); against Mycobacterium avium [8], 2 µM (≈ 1.02 µg/mL); with Mycobacterium kansasii [9], 0.25 µM (≈ 0.127 µg/mL); in [10], 0.25 µM (≈ 0.127 µg/mL).

As for `O=[N+]([O-])c1cc(-c2nnn(CCSc3nnnn3-c3ccc(Br)cc3)n2)cc([N+](=O)[O-])c1`, the MIC99 in the experiment on Mycobacterium kansasii [1] is 1 µM (≈ 0.519 µg/mL); in the experiment with Mycobacterium avium [2], 2 µM (≈ 1.04 µg/mL); in the experiment with Mycobacterium kansasii [3] it was 1 µM (≈ 0.519 µg/mL); in the experiment with Mycobacterium kansasii [4], 1 µM (≈ 0.519 µg/mL); in experiment [5] it was 0.5 µM (≈ 0.26 µg/mL); in the experiment with Mycobacterium kansasii [6], 1 µM (≈ 0.519 µg/mL). For the same compound, the MIC99 against Mycobacterium kansasii [7] is 1 µM (≈ 0.519 µg/mL); in the experiment with Mycobacterium avium [8], 2 µM (≈ 1.04 µg/mL); against Mycobacterium kansasii [9] it was 0.5 µM (≈ 0.26 µg/mL); in experiment [10], 0.5 µM (≈ 0.26 µg/mL).

With `O=[N+]([O-])c1cc(-c2nnn(Cc3cc(F)cc(F)c3)n2)cc([N+](=O)[O-])c1`, the MIC99 amounted to 2 µM (≈ 0.725 µg/mL) against Mycobacterium kansasii [1]; 16 µM (≈ 5.8 µg/mL) in the experiment with Mycobacterium avium [2]; 4 µM (≈ 1.45 µg/mL) in the experiment on Mycobacterium kansasii [3]; 1 µM (≈ 0.362 µg/mL) in the experiment with Mycobacterium kansasii [4]; 5 µM (≈ 1.81 µg/mL) in experiment [5]; 2 µM (≈ 0.725 µg/mL) in the experiment on Mycobacterium kansasii [6]. In addition, the MIC99 stood at 4 µM (≈ 1.45 µg/mL) in the experiment on Mycobacterium kansasii [7], 8 µM (≈ 2.9 µg/mL) in the experiment on Mycobacterium avium [8], 1 µM (≈ 0.362 µg/mL) with Mycobacterium kansasii [9] and 0.25 µM (≈ 0.0906 µg/mL) in experiment [10].

On to `Cn1nnc(-c2cc([N+](=O)[O-])cc([N+](=O)[O-])c2)n1`, for which the MIC99 against Mycobacterium kansasii [1] was found to be 62.5 µM (≈ 15.6 µg/mL); in the experiment on Mycobacterium avium [2], 125 µM (≈ 31.3 µg/mL); in the experiment on Mycobacterium kansasii [3] it was 62.5 µM (≈ 15.6 µg/mL); in the experiment with Mycobacterium kansasii [4] it was 62.5 µM (≈ 15.6 µg/mL); in experiment [5] it was 32 µM (≈ 8.01 µg/mL); against Mycobacterium kansasii [6], 125 µM (≈ 31.3 µg/mL). Besides, the MIC99 in the experiment with Mycobacterium kansasii [7] amounted to 125 µM (≈ 31.3 µg/mL); in the experiment on Mycobacterium avium [8] it was 62.5 µM (≈ 15.6 µg/mL); in the experiment on Mycobacterium kansasii [9], 62.5 µM (≈ 15.6 µg/mL); in [10], 32 µM (≈ 8.01 µg/mL).

`O=[N+]([O-])c1cc(-c2nnn(Cc3c(F)cccc3Cl)n2)cc([N+](=O)[O-])c1`: the MIC99 is 1 µM (≈ 0.379 µg/mL) against Mycobacterium kansasii [1]; 8 µM (≈ 3.03 µg/mL) in the experiment on Mycobacterium avium [2]; 1 µM (≈ 0.379 µg/mL) in the experiment on Mycobacterium kansasii [3]; 0.5 µM (≈ 0.189 µg/mL) against Mycobacterium kansasii [4]; 0.5 µM (≈ 0.189 µg/mL) in experiment [5]; 1 µM (≈ 0.379 µg/mL) against Mycobacterium kansasii [6]. The MIC99 with Mycobacterium kansasii [7] is 1 µM (≈ 0.379 µg/mL); with Mycobacterium avium [8], 4 µM (≈ 1.51 µg/mL); in the experiment with Mycobacterium kansasii [9] it was 0.5 µM (≈ 0.189 µg/mL); in [10], 0.5 µM (≈ 0.189 µg/mL).

Consider `O=[N+]([O-])c1cc(-c2nnn(Cc3ccc(F)c(F)c3)n2)cc([N+](=O)[O-])c1`, for which the MIC99 was 2 µM (≈ 0.725 µg/mL) in the experiment on Mycobacterium kansasii [1]; 8 µM (≈ 2.9 µg/mL) in the experiment with Mycobacterium avium [2]; 2 µM (≈ 0.725 µg/mL) against Mycobacterium kansasii [3]; 1 µM (≈ 0.362 µg/mL) in the experiment on Mycobacterium kansasii [4]; 0.5 µM (≈ 0.181 µg/mL) in experiment [5]; 2 µM (≈ 0.725 µg/mL) with Mycobacterium kansasii [6]. In addition, the MIC99 turned out to be 4 µM (≈ 1.45 µg/mL) in the experiment on Mycobacterium kansasii [7], 4 µM (≈ 1.45 µg/mL) with Mycobacterium avium [8], 1 µM (≈ 0.362 µg/mL) against Mycobacterium kansasii [9] and 0.25 µM (≈ 0.0906 µg/mL) in experiment [10].

Take `O=[N+]([O-])c1cc(-c2nnn(CCCCSc3nnnn3-c3ccc(Br)cc3)n2)cc([N+](=O)[O-])c1`: the MIC99 with Mycobacterium kansasii [1] was 1 µM (≈ 0.547 µg/mL); in the experiment with Mycobacterium avium [2], 1 µM (≈ 0.547 µg/mL); in the experiment with Mycobacterium kansasii [3] it was 2 µM (≈ 1.09 µg/mL); with Mycobacterium kansasii [4], 1 µM (≈ 0.547 µg/mL); in experiment [5] it was 0.5 µM (≈ 0.274 µg/mL); in the experiment on Mycobacterium kansasii [6] it was 1 µM (≈ 0.547 µg/mL). Further, the MIC99 in the experiment on Mycobacterium kansasii [7] is 1 µM (≈ 0.547 µg/mL); against Mycobacterium avium [8] it was 1 µM (≈ 0.547 µg/mL); in the experiment with Mycobacterium kansasii [9], 0.5 µM (≈ 0.274 µg/mL); in experiment [10], 0.5 µM (≈ 0.274 µg/mL).
